Data: publication PMC10194981, “Chemosensory protein regulates the behavioural response of Frankliniella intonsa and Frankliniella occidentalis to tomato zonate spot virus–Infected pepper (Capsicum annuum)” (PLOS Pathogens, 2023)
“Also recorded” adds a separate entry of the source.

Key:
[1] = test system: F. intonsa antennae; test: Electroantennogram (EAG) assay; parameters: species or system Frankliniella intonsa; details: excised F. intonsa antennae
Procedure: The FintCSP1, FintCSP2, FintOBP, FintOR, FoccCSP, and enhanced green fluorescent protein (EGFP) coding sequences were obtained from GenBank under accession numbers MT199111, MT211602, OK067245, MT211603, AEP27186.1, and U55761.1, respectively. Primers were designed using Primer Premier 5.0, and the T7 promoter sequence (5′-[…]-3′) was added to the 5′ end of each primer (S1 Table). DNA fragments containing T7 promoter sequences were amplified by PCR using pEASY-T1/target gene or pUC-EGFP (preserved in the laboratory) plasmid DNA as template. Then, a double-stranded RNA (dsRNA) was produced from each target gene using the HiScribe T7 Quick High Yield RNA Synthesis Kit (New England Biolabs) according to the manufacturer’s instructions. Six hundred 2-day-old female F. intonsa or two hundred 2-day-old female F. occidentalis adults were anesthetized using CO2 and microinjected with 40 nL (3 μg/μL) dsRNA (dsFintCSP1 dsFintCSP2, dsFintOBP, dsFintOR or dsFoccCSP or dsEGFP) using a CellTram Oil microinjector (Eppendorf, Hamburg, Germany). The injected thrips were kept on broad beans in an artificial climate incubator as described above and used in subsequent RNAi experiments. Three biological replicates were conducted for each treatment with each dsRNA.
At 24 h after dsRNA injection, the electrophysiological responses of F. intonsa antennae to six volatile components (i.e., m-cymene, cis-3-hexenal, (+)-2-carene, trans-2-hexenal, α-phellandrene, and α-humulene) or F. occidentalis antennae to cis-3-hexenal were recorded using EAG. Antennae of female adult thrips were cut off at the base, and the distal terminus was carefully removed. The tested compounds were dissolved in liquid paraffin, with pure liquid paraffin used as a negative control. An Ag-AgCl2 glass electrode and Kaissling electrode solution were used in the experiment according to Tian et al.. The base of the antenna was inserted into the glass capillary filled with electrode solution at the end of the reference electrode; the top of the antenna was connected to the glass capillary at the end of the recording electrode to ensure no bubbles in the glass capillary. After successful connection, the antennae were stimulated with each chemical in the following order: liquid paraffin, volatile compounds, and liquid paraffin. Stimulus time was 0.2 s with each stimulus at 40 s intervals. At least 10 antennae were tested for each volatile compound. The EAG values to volatile compounds were calculated using the following equation: absolute value of EAG reaction = reaction value of the tested sample—average value of two control measurements.

[2] = molecular target: recombinant wild-type FintCSP1 (Frankliniella intonsa, UniProt A0A891LVF4); test: Fluorescence (1-NPN) binding and competitive binding assay, wild-type FintCSP1
Chain of recombinant wild-type FintCSP1 (A0A891LVF4 entry or part of it): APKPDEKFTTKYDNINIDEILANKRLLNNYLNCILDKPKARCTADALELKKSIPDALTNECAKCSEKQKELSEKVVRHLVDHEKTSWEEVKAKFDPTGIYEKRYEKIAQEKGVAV
Procedure: (§1) FintCSP1 and FoccCSP DNA were released from pEASY-T1/FintCSP1 and pEASY-T1/FoccCSP, respectively, by restriction digestion with BamHI and XhoI and cloned into the pET-30a vector (Invitrogen). The resulting construct was transformed into Transetta (DE3) Escherichia coli competent cells (Transgen). The production of recombinant FintCSP1 and FoccCSP was induced by addition of isopropyl-β-D-1-thiogalactopyranoside (IPTG, 0.2 mM) at 15°C and purified by Ni ion affinity chromatography (Sangon Biotech, Shanghai, China). The target protein was verified by 15% SDS-PAGE, and its concentration was determined with a BCA protein assay kit (Thermo Scientific, Rockford, IL, USA). The recombinant purified protein was stored at −20°C until use.
(§2) The binding affinity of FintCSP1 and FoccCSP to the fluorescent probe N-phenyl-1-naphthylamine (1-NPN) was tested using a Spectramax M2 fluorescence spectrometer (Molecular Devices, USA) as reported previously. […] The 1-NPN/FintCSP1 or 1-NPN/FoccCSP mixture was excited at 280 nm, and the emission spectra were recorded at 415 nm. The binding constants (Kd) of FintCSP1 or FoccCSP to 1-NPN were calculated by Scatchard analysis using Prism 5 software (GraphPad, La Jolla, CA, USA). Assuming a protein activity of 100% and that the volatile compound binds to the protein in a 1:1 ratio at saturation, the dissociation constants (Ki) of FintCSP1 or FoccCSP for each ligand were calculated according to the IC50 (the concentration when the ligand replaces 50% of the probe) value of the volatile compounds. The Ki values were calculated according to the following equation: Ki = [IC50]/(1 + [1-NPN]/K1-NPN), where [1-NPN] is the free concentration of 1-NPN, and K1-NPN is the Kd of the 1-NPN/FintCSP1 or 1-NPN/FoccCSP.

[3] = test system: F. intonsa; test: Y-tube olfactometer preference test; format: in vivo, Frankliniella intonsa; details: volatile compound vs liquid paraffin control; n = 60
Procedure: F. intonsa and F. occidentalis preference tests of plant volatile cues were performed using a glass Y-tube olfactometer according to the method described by Wang et al. (2014) with minor modifications. A Y-shaped tube (1-cm inner diameter) consisted of a central tube (10 cm in length) and two arms (10 cm in length, offset by 60°) connected to two different glass odor bottles. One glass odor bottle was 50 cm in height, with a 10-cm inner diameter that contained pepper plants (14-day post-viral infection); the other glass odor bottle was 5 cm in height, with a 3-cm inner diameter for plant VOCs. The airflow in the olfactometer (200 mL/min) was filtered through activated carbon and calibrated using a flow meter at the end of each arm. To remove all visual cues, the Y-tube was positioned horizontally in a black airtight cubic box (90 cm × 60 cm × 40 cm). The tested odor sources (pepper plant VOCs) were enclosed in the odor bottles 5 min prior to each test to allow the odors to fill the arms. Thrips (2-day-old, starved for 1 h) were individually placed in the central tube and allowed to choose between the two arms. When the thrips had climbed over 2/3 of the side arm and stayed there for more than 30 s, it was considered to have made a selection. If the thrips had not made a choice after being placed in the straight arm for 5 min, the insect behaviour was scored as “no selection,” and it was not counted in the total data. The direction of the Y-tube arms and the silicone tubes were adjusted after five tested thrips to eliminate the influence of position. The Y-tube was replaced after 10 tested thrips to eliminate the possible influence of existing odors on thrips behaviour. Each treatment consisted of 20 thrips, with three replicates per treatment.
The FintCSP1, FintCSP2, FintOBP, FintOR, FoccCSP, and enhanced green fluorescent protein (EGFP) coding sequences were obtained from GenBank under accession numbers MT199111, MT211602, OK067245, MT211603, AEP27186.1, and U55761.1, respectively. Primers were designed using Primer Premier 5.0, and the T7 promoter sequence (5′-[…]-3′) was added to the 5′ end of each primer (S1 Table). DNA fragments containing T7 promoter sequences were amplified by PCR using pEASY-T1/target gene or pUC-EGFP (preserved in the laboratory) plasmid DNA as template. Then, a double-stranded RNA (dsRNA) was produced from each target gene using the HiScribe T7 Quick High Yield RNA Synthesis Kit (New England Biolabs) according to the manufacturer’s instructions. […]

[4] = molecular target: recombinant wild-type FoccCSP (Frankliniella occidentalis, UniProt G4Y3X1); test: Fluorescence (1-NPN) binding and competitive binding assay, wild-type FoccCSP
Chain of recombinant wild-type FoccCSP (G4Y3X1 entry or part of it): as the sequence (A0A891LVF4 entry or part of it) above, with D5E, I15V, A44N, A62M, V80A, D81E, H82K, T85E, Q109K counted along it
Procedure: as §1
(§3) The binding affinity of FintCSP1 and FoccCSP to the fluorescent probe N-phenyl-1-naphthylamine (1-NPN) was tested using a Spectramax M2 fluorescence spectrometer (Molecular Devices, USA) as reported previously. Volatile compounds and 1-NPN were first dissolved to a concentration of 1 mM in HPLC-grade methanol and dissolved to their indicated final concentration (2–20 μM) to titrate 2 μM protein solutions resuspended in 50 mM Tris-HCl (pH 7.4). The 1-NPN/FintCSP1 or 1-NPN/FoccCSP mixture was excited at 280 nm, and the emission spectra were recorded at 415 nm. The binding constants (Kd) of FintCSP1 or FoccCSP to 1-NPN were calculated by Scatchard analysis using Prism 5 software (GraphPad, La Jolla, CA, USA). Assuming a protein activity of 100% and that the volatile compound binds to the protein in a 1:1 ratio at saturation, the dissociation constants (Ki) of FintCSP1 or FoccCSP for each ligand were calculated according to the IC50 (the concentration when the ligand replaces 50% of the probe) value of the volatile compounds. The Ki values were calculated according to the following equation: Ki = [IC50]/(1 + [1-NPN]/K1-NPN), where [1-NPN] is the free concentration of 1-NPN, and K1-NPN is the Kd of the 1-NPN/FintCSP1 or 1-NPN/FoccCSP.

[5] = molecular target: FoccCSP-Lys26Ala (Frankliniella occidentalis, UniProt G4Y3X1, K26A); test: Fluorescence (1-NPN) binding and competitive binding assay, FoccCSP mutant
Chain of FoccCSP-Lys26Ala (G4Y3X1 entry or part of it K26A): as the sequence (A0A891LVF4 entry or part of it) above, with D5E, K7A, I15V, A44N, A62M, V80A, D81E, H82K, T85E, Q109K counted along it
Procedure: as §3
(§4) To verify the key amino acids of FintCSP1 and FoccCSP that bind to cis-3-hexenal, six amino acid residues of FintCSP1 were mutated (Lys26Ala, Phe27Ala, Thr28Ala, Glu67Ala, Ser84Ala, and the negative control residue Val132Ala) and nine amino acid residues of FoccCSP were mutated (Lys26Ala, Phe27Ala, Thr28Ala, Thr29Ala, Tyr31Ala, Asp64Ala, Glu67Ala, Gln87Ala, and the negative control residue Val132Ala) with the Fast Mutagenesis System Kit (Transgen Biotech, Beijing, China) using the pET-30a/FintCSP1 and pET-30a/FoccCSP plasmid DNA as template, respectively. Specific primers were designed using Primer Premier 5.0 according to the instructions of the Fast Mutagenesis System Kit (S1 Table). After validation by sequencing, each recombinant variant protein was produced and purified as described above, and their binding affinity to cis-3-hexenal was measured as described above.

[6] = molecular target: FoccCSP-Tyr31Ala (Frankliniella occidentalis, UniProt G4Y3X1, Y31A); test: as above
Chain of FoccCSP-Tyr31Ala (G4Y3X1 entry or part of it Y31A): as the sequence (A0A891LVF4 entry or part of it) above, with D5E, Y12A, I15V, A44N, A62M, V80A, D81E, H82K, T85E, Q109K counted along it
Procedure: as §3, §4

[7] = molecular target: FoccCSP-Gln87Ala (Frankliniella occidentalis, UniProt G4Y3X1, Q87A); test: as above
Chain of FoccCSP-Gln87Ala (G4Y3X1 entry or part of it Q87A): as the sequence (A0A891LVF4 entry or part of it) above, with D5E, I15V, A44N, A62M, Q68A, V80A, D81E, H82K, T85E, Q109K counted along it
Procedure: as §3, §4

[8] = molecular target: FintCSP1-Phe27Ala (Frankliniella intonsa, UniProt A0A891LVF4, F27A); test: Fluorescence (1-NPN) binding and competitive binding assay, FintCSP1 mutant
Chain of FintCSP1-Phe27Ala (A0A891LVF4 entry or part of it F27A): as the sequence (A0A891LVF4 entry or part of it) above, with F8A counted along it
Procedure: as §2, §4

[9] = molecular target: FintCSP1-Glu67Ala (Frankliniella intonsa, UniProt A0A891LVF4, E67A); test: as above
Chain of FintCSP1-Glu67Ala (A0A891LVF4 entry or part of it E67A): as the sequence (A0A891LVF4 entry or part of it) above, with E48A counted along it
Procedure: as §2, §4

[10] = molecular target: FintCSP1-Lys26Ala (Frankliniella intonsa, UniProt A0A891LVF4, K26A); test: as above
Chain of FintCSP1-Lys26Ala (A0A891LVF4 entry or part of it K26A): as the sequence (A0A891LVF4 entry or part of it) above, with K7A counted along it
Procedure: as §2, §4

[11] = molecular target: FintCSP1-Thr28Ala (Frankliniella intonsa, UniProt A0A891LVF4, T28A); test: as above
Chain of FintCSP1-Thr28Ala (A0A891LVF4 entry or part of it T28A): as the sequence (A0A891LVF4 entry or part of it) above, with T9A counted along it
Procedure: as §2, §4

[12] = molecular target: FoccCSP-Val132Ala (Frankliniella occidentalis, UniProt G4Y3X1, V132A); test: Fluorescence (1-NPN) binding and competitive binding assay, FoccCSP mutant (negative control residue)
Chain of FoccCSP-Val132Ala (G4Y3X1 entry or part of it V132A): as the sequence (A0A891LVF4 entry or part of it) above, with D5E, I15V, A44N, A62M, V80A, D81E, H82K, T85E, Q109K, V113A counted along it
Procedure: as §3, §4

[13] = molecular target: FintCSP1-Ser84Ala (Frankliniella intonsa, UniProt A0A891LVF4, S84A); test: Fluorescence (1-NPN) binding and competitive binding assay, FintCSP1 mutant
Chain of FintCSP1-Ser84Ala (A0A891LVF4 entry or part of it S84A): as the sequence (A0A891LVF4 entry or part of it) above, with S65A counted along it
Procedure: as §3
as §4, with “Specific primers were designed using Primer Premier 5.0 according to the instructions of the Fast Mutagenesis System Kit (S1 Table).” left out

[14] = molecular target: FintCSP1-Val132Ala (Frankliniella intonsa, UniProt A0A891LVF4, V132A); test: Fluorescence (1-NPN) binding and competitive binding assay, FintCSP1 mutant (negative control residue)
Chain of FintCSP1-Val132Ala (A0A891LVF4 entry or part of it V132A): as the sequence (A0A891LVF4 entry or part of it) above, with V113A counted along it
Procedure: as §3
as §4, with “Specific primers were designed using Primer Premier 5.0 according to the instructions of the Fast Mutagenesis System Kit (S1 Table).” left out

[15] = molecular target: FoccCSP-Phe27Ala (Frankliniella occidentalis, UniProt G4Y3X1, F27A); test: Fluorescence (1-NPN) binding and competitive binding assay, FoccCSP mutant
Chain of FoccCSP-Phe27Ala (G4Y3X1 entry or part of it F27A): as the sequence (A0A891LVF4 entry or part of it) above, with D5E, F8A, I15V, A44N, A62M, V80A, D81E, H82K, T85E, Q109K counted along it
Procedure: as §2, §4

[16] = molecular target: FoccCSP-Glu67Ala (Frankliniella occidentalis, UniProt G4Y3X1, E67A); test: as above
Chain of FoccCSP-Glu67Ala (G4Y3X1 entry or part of it E67A): as the sequence (A0A891LVF4 entry or part of it) above, with D5E, I15V, A44N, E48A, A62M, V80A, D81E, H82K, T85E, Q109K counted along it
Procedure: as §2, §4

[17] = molecular target: FoccCSP-Asp64Ala (Frankliniella occidentalis, UniProt G4Y3X1, D64A); test: as above
Chain of FoccCSP-Asp64Ala (G4Y3X1 entry or part of it D64A): as the sequence (A0A891LVF4 entry or part of it) above, with D5E, I15V, A44N, D45A, A62M, V80A, D81E, H82K, T85E, Q109K counted along it
Procedure: as §2, §4

[18] = molecular target: FoccCSP-Thr28Ala (Frankliniella occidentalis, UniProt G4Y3X1, T28A); test: as above
Chain of FoccCSP-Thr28Ala (G4Y3X1 entry or part of it T28A): as the sequence (A0A891LVF4 entry or part of it) above, with D5E, T9A, I15V, A44N, A62M, V80A, D81E, H82K, T85E, Q109K counted along it
Procedure: as §2, §4

[19] = molecular target: FoccCSP-Thr29Ala (Frankliniella occidentalis, UniProt G4Y3X1, T29A); test: as above
Chain of FoccCSP-Thr29Ala (G4Y3X1 entry or part of it T29A): as the sequence (A0A891LVF4 entry or part of it) above, with D5E, T10A, I15V, A44N, A62M, V80A, D81E, H82K, T85E, Q109K counted along it
Procedure: as §2, §4

Compound: CC1=CC2C(CC1)C2(C)C (single isomer, unassigned; (+)) [(+)-2-carene]
- EAG peak amplitude ([1]; 1 mg/L in liquid paraffin): –0.016 mV

Compound: C/C1=C\CC/C(C)=C/CC(C)(C)/C=C/C1 [α-humulene]
- EAG peak amplitude ([1]; 1 mg/L in liquid paraffin): –0.024 mV

Compound: CCC/C=C/C=O [trans-2-hexenal]
- EAG peak amplitude ([1]; 1 mg/L in liquid paraffin): –0.024 mV
- IC50 [2]: > 100 µM
- Ki [2]: > 100 µM
- binding affinity to FintCSP1 (in words) ([2]; wild-type FintCSP1, competitive fluorescence binding assay, classes of Ki): no FintCSP1 binding; also recorded: could not bind

Compound: CC1=CC[C@H](C(C)C)C=C1 (racemic) [α-phellandrene]
- EAG peak amplitude ([1]; 10 mg/L in liquid paraffin): –0.018 mV

Compound: Cc1cccc(C(C)C)c1 [m-cymene]
- preference of F. intonsa in Y-tube olfactometer (in words) [3]: appeared to repel F. intonsa, but this result was not statistically significant
- EAG peak amplitude ([1]; 10 mg/L in liquid paraffin): approximately –0.034 mV

Compound: c1ccc(Nc2cccc3ccccc23)cc1 [1-NPN, N-phenyl-1-naphthylamine, reference compound]
- Kd [4]: 6.36 ± 0.51 µM
- Kd [5]: 17.4 ± 1.32 µM
- Kd [6]: 9.79 ± 0.87 µM
- Kd [7]: 20.3 ± 2.25 µM
- Kd [8]: 4.38 ± 0.49 µM
- Kd [9]: 4.5 ± 0.61 µM
- Kd [10]: 3.3 ± 0.39 µM
- Kd [11]: 3.85 ± 0.41 µM
- Kd [12]: 7.26 ± 0.66 µM
- Kd [2]: 6.07 ± 0.4 µM
- Kd [13]: 3.48 ± 0.33 µM
- Kd [14]: 6.77 ± 0.36 µM
- Kd [15]: 7.09 ± 0.39 µM
- Kd [16]: 15.7 ± 2.3 µM
- Kd [17]: 31 ± 4.55 µM
- Kd [18]: 19.9 ± 2.43 µM
- Kd [19]: 15.5 ± 1.74 µM
